The values that follow come from PubChem BioAssay AID2060338 (Molecular Pharmacology Branch, DTP, NCI, 2025).

The IC50 is the concentration needed to halve the response being measured. By viability, T/C is commonly meant the ratio of treated to control.

The test concerns 556581-035-R-J1-PDC spheroids with HUVEC/MSC, viability. Nature of the test: Anticancer human tumor 556581-035-R-J1-PDC patient-derived ovarian carcinoma cell line growth inhibition [IpAb]. Particulars: for viability, T/C: stronger effect = lower value. From the text:
Combinatorial screen of targeted agents with ipatasertib and abemaciclib in multi-cell type tumor spheroids
A high-throughput screen of multi-cell type tumor spheroids was designed to identify active combinations of targeted small molecules and ipatasertib or abemaciclib. Complex spheroids include a stromal component modeled by human endothelial cells (HUVEC) and fibroblasts modeled by human mesenchymal stem cells (MSCs). The concentration ranges selected for each drug and investigational agent were based upon clinically achievable concentrations if the clinical Cmax of the agent was known.
Compounds. The drugs and investigational agents: ipatasertib (NSC767898), abemaciclib(NSC768073), selumetinib (NSC741078), trametinib (758246), adavosertib (NSC754352), everolimus (NSC733504), sapanisertib (NSC764658), vemurafenib (NSC761431), venetoclax (NSC766270), copanlisib (NSC809693), apelisib (NSC765974), palbociblib (NSC758247), vemurafenib (NSC761431), dabrafenib (NSC764134), ravoxertinib (NSC781343), BMS-387032 (NSC767048), sotorasib (NSC818433), talazoparib (NSC767125) and afursertib (NSC778305), were obtained from the National Cancer Institute (NCI) Developmental Therapeutics Program Chemical Repository. The FDA-approved anticancer drug set is available from the NCI Developmental Therapeutics Program. […] The stock solutions were prepared in dimethyl sulfoxide (DMSO, Sigma-Aldrich, St. Louis, MO, cat. D2650) at 800-fold the tested concentration and stored at -70 degrees C prior to their use. All drugs and investigational agents were tested over a range starting from a high concentration at or near the clinical Cmax and decreasing in half-log increments. If the clinical Cmax for an agent had not been determined, the highest concentration tested was 10 microM.
NCI60 Cell Culture. NCI60 cell lines were obtained from the NCI Developmental Therapeutics Program Tumor Repository. For each lot of cells, the Repository performed Applied Biosystems AmpFLSTR Identifiler testing with PCR amplification to confirm consistency with the published Identifier STR profile for each cell line. Cells were kept in continuous culture for no more than 20 passages. The optimal seeding densities for each of the cell lines at each time point assessed were determined prior to performing the concentration response studies. Briefly, the NCI60 human tumor lines were grown as monolayers in RPMI 1640 medium supplemented with 10% FBS and 2 mmol/L L-glutamine.
An additional 9 lines were from the NCI60 cell line panel including MDA-MB-231 breast carcinoma, MDA-MB-468 breast carcinoma, MCF7 breast carcinoma, Hs578T breast carcinoma, MALME-3M melanoma, SK-MEL-2 melanoma, SK-OV-3 ovarian carcinoma, DU-145 prostate carcinoma, PC-3 prostate carcinoma, all cell lines along with major genetic alterations are listed on Table 2. Pooled donor human umbilical vein endothelial cells (HUVEC, Lonza, cat. CC-2519) and human mesenchymal stem cells (hMSC, Lonza, cat. PT-2501) were purchased from Lonza (Walkersville, MD).
PDMR cell lines were grown in complete medium (DC medium): Dulbecco's modified Eagle's medium (DMEM)/F12 supplemented with 5% fetal bovine serum (FBS), 2 mM L-glutamine, 100 U/mL penicillin and 100 µg/ml streptomycin, 0.4 µg/ml hydrocortisone, 10 ng/ml epidermal growth factor (EGF) recombinant human protein, 24 µg/mL adenine, and 0.1 mg/mL primocin. During culture from frozen stock vials, PDMR cells were cultured in the same medium containing 10 µM Y-27632 (see Table 3). The PDCs were cultured in complete DMEM/F12 media without 10 microM Y-27632 dihydrochloride for at least two passages prior to the screen. The pooled donor HUVEC and hMSC were cultured in endothelial cell growth medium 2 (PromoCell, Heidelberg, Germany, cat. C-22011) and mesenchymal stem cell growth medium 2 (PromoCell, cat. C-28009), respectively. For all experiments, HUVEC and hMSC were used at passages </=5.
[…]

Setting [1] is: curve of first compound, second compound 0.01 µM.
Setting [2] is: curve of first compound, second compound 0.0316 µM.
Where [3] appears, read: curve of first compound, second compound 0.1 µM.
[4] abbreviates: curve of first compound, second compound 0.316 µM.
[5] abbreviates: curve of first compound, second compound 1 µM.

Where “and” joins values, the source holds several entries; their conditions need not be identical. Equal values may be shown once.
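Also: spheroids exposed to compounds for 7 days before readout.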

On to `CC(C)(C)c1cnc(CSc2cnc(NC(=O)C3CCNCC3)s2)o1` + CCN1CCN(Cc2ccc(Nc3ncc(F)c(-c4cc(F)c5nc(C)n(C(C)C)c5c4)n3)nc2)CC1, for which the IC50 amounted to 154 nM under setting [1]; 114 nM under setting [2]; 67.8 nM under setting [3]; 45.4 nM under setting [4]; 13.1 nM under setting [5]. Further, the viability, T/C is 103% (second compound 0.01 µM, first compound 0.00949 µM); 122% (second compound 0.01 µM, first compound 0.03 µM); 84.5% (second compound 0.01 µM, first compound 0.0949 µM); 2.06% (second compound 0.01 µM, first compound 0.3 µM); 2.48% (second compound 0.01 µM, first compound 0.949 µM); 2.1% (second compound 0.01 µM, first compound 3 µM). The viability, T/C was 115% (second compound 0.0316 µM, first compound 0.00949 µM); 103% (second compound 0.0316 µM, first compound 0.03 µM); 59.2% (second compound 0.0316 µM, first compound 0.0949 µM); 5.51% (second compound 0.0316 µM, first compound 0.3 µM); 1.33% (second compound 0.0316 µM, first compound 0.949 µM); 0.97% (second compound 0.0316 µM, first compound 3 µM). Also, the viability, T/C runs as follows: (second compound 0.1 µM, first compound 0.00949 µM) 93.8%; (second compound 0.1 µM, first compound 0.03 µM) 93.9%; (second compound 0.1 µM, first compound 0.0949 µM) 31.8%; (second compound 0.1 µM, first compound 0.3 µM) 1.38%; (second compound 0.1 µM, first compound 0.949 µM) 3.13%; (second compound 0.1 µM, first compound 3 µM) 1.36%. Further, the viability, T/C (second compound 0.316 µM, first compound 0.00949 µM) is 83.5%; the viability, T/C (second compound 0.316 µM, first compound 0.03 µM) was 73.7%; the viability, T/C (second compound 0.316 µM, first compound 0.0949 µM) was 7.97%; the viability, T/C (second compound 0.316 µM, first compound 0.3 µM) was 1.31%; the viability, T/C (second compound 0.316 µM, first compound 0.949 µM) is 2.8%; the viability, T/C (second compound 0.316 µM, first compound 3 µM) is 3.38%. For the same molecule, the viability, T/C by setting is: (second compound 1 µM, first compound 0.00949 µM) 55.7%; (second compound 1 µM, first compound 0.03 µM) 35.4%; (second compound 1 µM, first compound 0.0949 µM) 3.81%; (second compound 1 µM, first compound 0.3 µM) 1.87%; (second compound 1 µM, first compound 0.949 µM) 0.65%; (second compound 1 µM, first compound 3 µM) 1.32%.
Take `Cn1nccc1Nc1nccc(-c2ccn(C(CO)c3ccc(Cl)c(F)c3)c(=O)c2)n1` (centres undefined) + CCN1CCN(Cc2ccc(Nc3ncc(F)c(-c4cc(F)c5nc(C)n(C(C)C)c5c4)n3)nc2)CC1: the IC50 under setting [1] stood at 9080 nM; the half-inhibitory concentration (IC50) under setting [2] is 6090 nM; the IC50 under setting [3] is 5330 nM; the IC50 under setting [4] is 7520 nM; the IC50 under setting [5] is 5340 nM. The viability, T/C is, setting by setting: (second compound 0.01 µM, first compound 0.0316 µM) 110%; (second compound 0.01 µM, first compound 0.1 µM) 145%; (second compound 0.01 µM, first compound 0.316 µM) 127%; (second compound 0.01 µM, first compound 1 µM) 109%; (second compound 0.01 µM, first compound 3.16 µM) 95.4%; (second compound 0.01 µM, first compound 10 µM) 45.8%. In addition, the viability, T/C runs as follows: (second compound 0.0316 µM, first compound 0.0316 µM) 119%; (second compound 0.0316 µM, first compound 0.1 µM) 140%; (second compound 0.0316 µM, first compound 0.316 µM) 128%; (second compound 0.0316 µM, first compound 1 µM) 98.5%; (second compound 0.0316 µM, first compound 3.16 µM) 72%; (second compound 0.0316 µM, first compound 10 µM) 34.8%. For the same molecule, the viability, T/C (second compound 0.1 µM, first compound 0.0316 µM) was 107%; the viability, T/C (second compound 0.1 µM, first compound 0.1 µM) is 123%; the viability, T/C (second compound 0.1 µM, first compound 0.316 µM) is 134%; the viability, T/C (second compound 0.1 µM, first compound 1 µM) was 119%; the viability, T/C (second compound 0.1 µM, first compound 3.16 µM) is 63.4%; the viability, T/C (second compound 0.1 µM, first compound 10 µM) is 33.8%. Further, the viability, T/C runs as follows: (second compound 0.316 µM, first compound 0.0316 µM) 92.2%; (second compound 0.316 µM, first compound 0.1 µM) 103%; (second compound 0.316 µM, first compound 0.316 µM) 144%; (second compound 0.316 µM, first compound 1 µM) 101%; (second compound 0.316 µM, first compound 3.16 µM) 87.3%; (second compound 0.316 µM, first compound 10 µM) 37.9%. Also, the viability, T/C reads like this: (second compound 1 µM, first compound 0.0316 µM) 78%; (second compound 1 µM, first compound 0.1 µM) 85.5%; (second compound 1 µM, first compound 0.316 µM) 128%; (second compound 1 µM, first compound 1 µM) 72.3%; (second compound 1 µM, first compound 3.16 µM) 71.5%; (second compound 1 µM, first compound 10 µM) 27.2%.
Take `C=CCn1c(=O)c2cnc(Nc3ccc(N4CCN(C)CC4)cc3)nc2n1-c1cccc(C(C)(C)O)n1`: the viability, T/C reads like this: (compound 0.0316 µM) 102% and 109%; (compound 0.1 µM) 72.1% and 83.2%; (compound 0.316 µM) 28.2% and 29.8%; (compound 1 µM) 39.7% and 41.9%; (compound 3.16 µM) 50.2% and 42%; (compound 10 µM) 36.3% and 35.7%. The concentration for half-maximal inhibition (IC50) (curve of compound) is 214 nM and 230 nM.
As to `CC(C)NCC(C(=O)N1CCN(c2ncnc3c2C(C)CC3O)CC1)c1ccc(Cl)cc1` (centres undefined), the viability, T/C is, setting by setting: (compound 3.16 µM) 49% [middle of 13 runs]; (compound 10 µM) 45.5% [middle of 12 runs].
